Earlier results, collected in article PMC3201700 (Journal of agricultural and food chemistry, 2011).
Where two headings read alike, the source gives them in different places.

Tests used:
MRP1 and MRP2 = details: SFN compared with ERN
[1] = rats

Recovery of the dose in the urine after 24 h ([1]; by gavage) [%]	Recovery of the dose in the urine after 24 h ([1]; in the diet) [%]	SMILES	Induction of MRP1 and MRP2 (phase III detoxification) (MRP1 and MRP2)
–	–	C[S+]([O-])CCCCN=C=S (stereo not drawn) [SFN, sulforaphane]	substantially more potent than ERN
27.6	23.8	C[S+]([O-])CCCC/C(=N\OS(=O)(=O)O)S[C@@H]1O[C@H](CO)[C@@H](O)[C@H](O)[C@H]1O (stereo partly drawn) [glucoraphanin]	–
